From patent EP0036572A1, “Substituted alkylthioacylamino acids, processes for their preparation and pharmaceutical compositions” (C.H. BOEHRINGER SOHN, priority 1980, dated 1981) come the findings set out here.

For assay [1], the system named is genetischen Hochdruckratte. Conditions: genetische Hochdruckratte; 30 mg/kg p.o.
The test system of assay [2] is durch Bradykinin erzeugte Blutdrucksenkung. The following applies: Ratten; 3,0 µ g/kg Bradykinin i.v.; test substance 1,38juMol/kg i.v.

As to `C[C@H](CSC(C[N+](=O)[O-])c1ccccc1)C(=O)N1CCC[C@H]1C(=O)O` (stereo partly drawn) [Beispiel 1, 1-[3-(1-Phenyl-2-nitro-äthylthio)-2-D-methylpropanoyl]-L-prolin], in assay [1], the Blutdrucksenkung amounted to 19%. The “durch Bradykinin verursachte Blutdrucksenkung verstärkt um” value in assay [2] was 142%.
